How the values were obtained:
Test in all cases: relative viability (nuclei count vs DMSO), 5 days (fraction); higher = more cells survive
[1] = tested on: NCI-H1355
Method in brief: (§1)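 Relative viability equals treated-well nuclei counts divided by vehicle-well nuclei counts. Counts came from 4× images of lung cancer cell lines grown in 1536-well plates for 5 days after pin-tool dosing on the day after seeding. Dosing used one drug alone or a fixed anchor-drug dose plus five library-drug doses (not always all listed) in √10 steps, and values are medians of duplicate plates.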

[2] = tested on: BEN
Method in brief: as §1

[3] = tested on: NCI-H441
Method in brief: as §1

[4] = tested on: NCI-H1563
Method in brief: as §1

[5] = tested on: NCI-H1975
Method in brief: as §1

[6] = tested on: NCI-H1437
Method in brief: as §1

[7] = tested on: NCI-H1650
Method in brief: as §1

[8] = tested on: CAL-12T
Method in brief: as §1

[9] = tested on: NCI-H1734
Method in brief: as §1

[10] = tested on: HCC-366
Method in brief: as §1

[11] = tested on: NCI-H1651
Method in brief: as §1

[12] = tested on: EKVX
Method in brief: as §1

[13] = tested on: NCI-H2085
Method in brief: as §1

[14] = tested on: LU99A
Method in brief: as §1

[15] = tested on: NCI-H2023
Method in brief: as §1

[16] = tested on: HCC-44
Method in brief: as §1

[17] = tested on: NCI-H838
Method in brief: as §1

[18] = tested on: NCI-H1755
Method in brief: as §1

[19] = tested on: LOU-NH91
Method in brief: as §1

[20] = tested on: NCI-H460
Method in brief: as §1

[21] = tested on: NCI-H1395
Method in brief: as §1

[22] = tested on: NCI-H358
Method in brief: as §1

Compound: CC1(C)CCC(c2ccc(Cl)cc2)=C(CN2CCN(c3ccc(C(=O)NS(=O)(=O)c4ccc(N[C@H](CCN5CCOCC5)CSc5ccccc5)c(S(=O)(=O)C(F)(F)F)c4)cc3)CC2)C1 [Navitoclax] + CC(C)C[C@H](NC(=O)[C@H](Cc1ccccc1)NC(=O)c1cnccn1)B(O)O [Bortezomib] (partner 0.002 µM)
- relative viability ([1]; first compound 0.005 µM): 1.02
- relative viability ([1]; first compound 0.01581 µM): 1.24
- relative viability ([1]; first compound 0.05 µM): 1.06
- relative viability ([1]; first compound 0.1581 µM): 1.15
- relative viability ([1]; first compound 0.5 µM): 1.14
- relative viability ([2]; first compound 0.005 µM): 0.826
- relative viability ([2]; first compound 0.01581 µM): 0.807
- relative viability ([2]; first compound 0.05 µM): 0.664
- relative viability ([2]; first compound 0.1581 µM): 0.789
- relative viability ([2]; first compound 0.5 µM): 0.339
- relative viability ([3]; first compound 0.005 µM): 0.349
- relative viability ([3]; first compound 0.01581 µM): 0.737
- relative viability ([3]; first compound 0.05 µM): 0.379
- relative viability ([3]; first compound 0.1581 µM): 0.424
- relative viability ([3]; first compound 0.5 µM): 0.496
- relative viability ([4]; first compound 0.005 µM): 0.83
- relative viability ([4]; first compound 0.01581 µM): 1
- relative viability ([4]; first compound 0.05 µM): 0.748
- relative viability ([4]; first compound 0.1581 µM): 1.05
- relative viability ([4]; first compound 0.5 µM): 1.24
- relative viability ([5]; first compound 0.005 µM): 0.389
- relative viability ([5]; first compound 0.01581 µM): 0.354
- relative viability ([5]; first compound 0.05 µM): 0.381
- relative viability ([5]; first compound 0.1581 µM): 0.258
- relative viability ([5]; first compound 0.5 µM): 0.255
- relative viability ([6]; first compound 0.005 µM): 0.503
- relative viability ([6]; first compound 0.01581 µM): 0.589
- relative viability ([6]; first compound 0.05 µM): 0.589
- relative viability ([6]; first compound 0.1581 µM): 0.495
- relative viability ([6]; first compound 0.5 µM): 0.47
- relative viability ([7]; first compound 0.005 µM): 0.183
- relative viability ([7]; first compound 0.01581 µM): 0.213
- relative viability ([7]; first compound 0.05 µM): 0.165
- relative viability ([7]; first compound 0.1581 µM): 0.191
- relative viability ([7]; first compound 0.5 µM): 0.163
- relative viability ([8]; first compound 0.005 µM): 0.887
- relative viability ([8]; first compound 0.01581 µM): 0.711
- relative viability ([8]; first compound 0.05 µM): 0.989
- relative viability ([8]; first compound 0.1581 µM): 0.853
- relative viability ([8]; first compound 0.5 µM): 0.941
- relative viability ([9]; first compound 0.005 µM): 1.05
- relative viability ([9]; first compound 0.01581 µM): 1.12
- relative viability ([9]; first compound 0.1581 µM): 0.899
- relative viability ([9]; first compound 0.5 µM): 1.02
- relative viability ([10]; first compound 0.005 µM): 1
- relative viability ([10]; first compound 0.01581 µM): 1.06
- relative viability ([10]; first compound 0.05 µM): 0.539
- relative viability ([10]; first compound 0.1581 µM): 0.974
- relative viability ([10]; first compound 0.5 µM): 1.04
- relative viability ([11]; first compound 0.005 µM): 0.918
- relative viability ([11]; first compound 0.01581 µM): 0.916
- relative viability ([11]; first compound 0.05 µM): 0.423
- relative viability ([11]; first compound 0.1581 µM): 0.943
- relative viability ([11]; first compound 0.5 µM): 0.957
- relative viability ([12]; first compound 0.005 µM): 1.01
- relative viability ([12]; first compound 0.01581 µM): 1.01
- relative viability ([12]; first compound 0.05 µM): 0.68
- relative viability ([12]; first compound 0.1581 µM): 1.04
- relative viability ([12]; first compound 0.5 µM): 0.963
- relative viability ([13]; first compound 0.005 µM): 0.977
- relative viability ([13]; first compound 0.01581 µM): 1.09
- relative viability ([13]; first compound 0.05 µM): 0.855
- relative viability ([13]; first compound 0.1581 µM): 1.15
- relative viability ([13]; first compound 0.5 µM): 0.978
- relative viability ([14]; first compound 0.005 µM): 1.08
- relative viability ([14]; first compound 0.01581 µM): 1.29
- relative viability ([14]; first compound 0.05 µM): 0.857
- relative viability ([14]; first compound 0.1581 µM): 1.15
- relative viability ([14]; first compound 0.5 µM): 1.32
- relative viability ([15]; first compound 0.005 µM): 1.06
- relative viability ([15]; first compound 0.01581 µM): 1.18
- relative viability ([15]; first compound 0.05 µM): 0.857
- relative viability ([15]; first compound 0.1581 µM): 0.906
- relative viability ([15]; first compound 0.5 µM): 0.938
- relative viability ([16]; first compound 0.005 µM): 0.859
- relative viability ([16]; first compound 0.01581 µM): 0.912
- relative viability ([16]; first compound 0.05 µM): 0.859
- relative viability ([16]; first compound 0.1581 µM): 0.927
- relative viability ([16]; first compound 0.5 µM): 0.882
- relative viability ([17]; first compound 0.005 µM): 0.65
- relative viability ([17]; first compound 0.01581 µM): 1.19
- relative viability ([17]; first compound 0.05 µM): 1.17
- relative viability ([17]; first compound 0.1581 µM): 0.75
- relative viability ([17]; first compound 0.5 µM): 0.81
- relative viability ([18]; first compound 0.005 µM): 0.929
- relative viability ([18]; first compound 0.01581 µM): 1.01
- relative viability ([18]; first compound 0.05 µM): 0.723
- relative viability ([18]; first compound 0.1581 µM): 0.903
- relative viability ([18]; first compound 0.5 µM): 0.924
- relative viability ([19]; first compound 0.005 µM): 0.418
- relative viability ([19]; first compound 0.01581 µM): 0.485
- relative viability ([19]; first compound 0.05 µM): 0.391
- relative viability ([19]; first compound 0.1581 µM): 0.449
- relative viability ([19]; first compound 0.5 µM): 0.339
- relative viability ([20]; first compound 0.005 µM): 1.1
- relative viability ([20]; first compound 0.01581 µM): 1.16
- relative viability ([20]; first compound 0.05 µM): 1.4
- relative viability ([20]; first compound 0.1581 µM): 1.01
- relative viability ([20]; first compound 0.5 µM): 0.983

Compound: Oc1nc(-c2ccc(C(F)(F)F)cc2)nc2c1CSCC2 [XAV939] + Cc1nc(NC(=O)N2CCC[C@H]2C(N)=O)sc1-c1ccnc(C(C)(C)C(F)(F)F)c1 [Alpelisib] (partner 2 µM)
- relative viability ([1]; first compound 0.08 µM): 0.78
- relative viability ([1]; first compound 0.253 µM): 0.654
- relative viability ([1]; first compound 0.8 µM): 0.75
- relative viability ([1]; first compound 2.53 µM): 0.489
- relative viability ([2]; first compound 0.08 µM): 1.08
- relative viability ([2]; first compound 0.253 µM): 0.921
- relative viability ([2]; first compound 0.8 µM): 1.01
- relative viability ([3]; first compound 0.08 µM): 0.687
- relative viability ([3]; first compound 0.253 µM): 0.486
- relative viability ([3]; first compound 0.8 µM): 0.742
- relative viability ([3]; first compound 2.53 µM): 0.657
- relative viability ([4]; first compound 0.08 µM): 0.937
- relative viability ([4]; first compound 0.253 µM): 0.864
- relative viability ([4]; first compound 0.8 µM): 0.804
- relative viability ([4]; first compound 2.53 µM): 0.708
- relative viability ([5]; first compound 0.08 µM): 0.619
- relative viability ([5]; first compound 0.253 µM): 0.573
- relative viability ([5]; first compound 0.8 µM): 0.566
- relative viability ([5]; first compound 2.53 µM): 0.445
- relative viability ([6]; first compound 0.08 µM): 1.03
- relative viability ([6]; first compound 0.253 µM): 0.709
- relative viability ([6]; first compound 0.8 µM): 0.97
- relative viability ([6]; first compound 2.53 µM): 0.715
- relative viability ([8]; first compound 0.08 µM): 1.42
- relative viability ([8]; first compound 0.253 µM): 0.932
- relative viability ([8]; first compound 0.8 µM): 1.2
- relative viability ([8]; first compound 2.53 µM): 0.73
- relative viability ([9]; first compound 0.08 µM): 0.713
- relative viability ([9]; first compound 0.253 µM): 0.64
- relative viability ([9]; first compound 0.8 µM): 0.634
- relative viability ([9]; first compound 2.53 µM): 0.606
- relative viability ([10]; first compound 0.08 µM): 0.535
- relative viability ([10]; first compound 0.253 µM): 0.308
- relative viability ([10]; first compound 0.8 µM): 0.446
- relative viability ([10]; first compound 2.53 µM): 0.389
- relative viability ([21]; first compound 0.08 µM): 1.09
- relative viability ([21]; first compound 0.253 µM): 1.03
- relative viability ([21]; first compound 0.8 µM): 1.08
- relative viability ([21]; first compound 2.53 µM): 1.06
- relative viability ([11]; first compound 0.08 µM): 0.979
- relative viability ([11]; first compound 0.253 µM): 0.841
- relative viability ([11]; first compound 0.8 µM): 0.978
- relative viability ([11]; first compound 2.53 µM): 0.891
- relative viability ([12]; first compound 0.08 µM): 0.825
- relative viability ([12]; first compound 0.253 µM): 0.67
- relative viability ([12]; first compound 0.8 µM): 0.731
- relative viability ([12]; first compound 2.53 µM): 0.548
- relative viability ([13]; first compound 0.08 µM): 0.993
- relative viability ([13]; first compound 0.253 µM): 0.898
- relative viability ([13]; first compound 0.8 µM): 0.814
- relative viability ([13]; first compound 2.53 µM): 0.737
- relative viability ([14]; first compound 0.08 µM): 0.501
- relative viability ([14]; first compound 0.253 µM): 0.579
- relative viability ([14]; first compound 0.8 µM): 0.494
- relative viability ([14]; first compound 2.53 µM): 0.4
- relative viability ([15]; first compound 0.08 µM): 0.572
- relative viability ([15]; first compound 0.253 µM): 0.524
- relative viability ([15]; first compound 0.8 µM): 0.525
- relative viability ([15]; first compound 2.53 µM): 0.412
- relative viability ([16]; first compound 0.08 µM): 0.953
- relative viability ([16]; first compound 0.253 µM): 0.675
- relative viability ([16]; first compound 0.8 µM): 0.775
- relative viability ([16]; first compound 2.53 µM): 0.737
- relative viability ([17]; first compound 0.08 µM): 1.08
- relative viability ([17]; first compound 0.253 µM): 0.849
- relative viability ([17]; first compound 0.8 µM): 0.909
- relative viability ([17]; first compound 2.53 µM): 0.604
- relative viability ([18]; first compound 0.08 µM): 0.895
- relative viability ([18]; first compound 0.253 µM): 0.808
- relative viability ([18]; first compound 0.8 µM): 0.888
- relative viability ([18]; first compound 2.53 µM): 0.735
- relative viability ([19]; first compound 0.08 µM): 0.687
- relative viability ([19]; first compound 0.253 µM): 0.659
- relative viability ([19]; first compound 0.8 µM): 0.714
- relative viability ([19]; first compound 2.53 µM): 0.648
- relative viability ([20]; first compound 0.08 µM): 0.679
- relative viability ([20]; first compound 0.253 µM): 0.36
- relative viability ([20]; first compound 0.8 µM): 0.53
- relative viability ([20]; first compound 2.53 µM): 0.359
- relative viability ([22]; first compound 0.08 µM): 0.815
- relative viability ([22]; first compound 0.253 µM): 0.671
- relative viability ([22]; first compound 0.8 µM): 0.915
- relative viability ([22]; first compound 2.53 µM): 0.591
